Data taken from PMC7904806, “A phase I dose-finding, pharmacokinetics and genotyping study of olaparib and lurbinectedin in patients with advanced solid tumors” (Scientific Reports, 2021).
Where “and” joins values, the source holds several entries; their conditions need not be identical. Equal values may be shown once. Entries after “also recorded” stand apart in the source; their conditions may differ. Read-outs that look alike come from different tables or passages of the source.

Tests used:
[1] = Pharmacokinetics in patients, cycle 1 (noncompartmental analysis); type: in vivo, human; conditions: for Drug–drug interactions (DDI): combination of lurbinectedin and olaparib
From the text: Blood samples for pharmacokinetic (PK) analyses were collected during cycle 1, with a schedule of ten samples (Supplementary Table 5).
Safety and efficacy population comprised all patients who received at least one dose of the study treatment. Continuous variables were presented with summary statistics and qualitative variables with the absolute and relative frequencies. In those cases where it was necessary to ensure the normality of the continuous parameters, log transformation (or other suitable transformation) was performed. Analysis of Variance (ANOVA) was used for exploratory group comparisons. If Gaussian distribution assumptions (Shapiro–Wilks test) were not met, equivalent nonparametric methods as the Kruskal–Wallis, were performed. Chi-squared or Fisher exact test were used for qualitative parameters. To explore the change in value of a variable, between baseline and week 12 or any other time point, a t-test for paired data or the Wilcoxon signed-rank test was performed, based on the distribution followed by the corresponding variable. All statistical analyses were performed using IBM SPSS Statistics 22 and R v.3.4.3. PK analysis was performed according to the NCA. […] The dose-exposure relationships for Cmax and AUC for lurbinectedin and AUC 0–6 for olaparib will be evaluated and any potential PK interaction between olaparib and lurbinectedin were also explored. The population pharmacokinetics (PopPK) models for each drug was used to detect potential drug–drug interactions based on single agent PopPK models. The potential influence on selected PK parameters of selected demographic and clinical dichotomous variables (gender, laboratory test results above/below selected cutoff values, etc.) was evaluated by Student’s test Mann–Whitney’s U test as appropriate. For multinomial variables, analysis of variance was used. For selected continuous demographic and clinical variables, relationships with selected PK parameters were graphically explored and assessed using correlation and regression methods.
Supplementary Table 5. Sampling schedule for the determination of lurbinectedin and
Sample Time relative to the Sampling times Sampling times PK
number lurbinectedin for lurbinectedin for olaparib window
#1 1 0 min Pre-infusion Pre-dose -10 min to SOI
#2 1 0.5 h 30 min before EOI 30 min after 1st administration ±2 min
#3 1 0.92 h 5 min before EOI 55 min after 1st administration ±2 min
#4 1 1.5 h 30 min after EOI 1.5 h after 1st administration ±5 min
#5 1 3 h 2 h after EOI 3 h after 1st administration ±10 min
#6 1 4.5 h 3.5 h after EOI 4.5 h after 1st administration ±10 min
#7 1 6 h 5 h after EOI 6 h after 1st administration ±10 min
2 24 h after 1st administration
#8 24 h 23 h after EOI (immediately before 3rd olaparib administration) ±2 h
4 72 h after 1st administration
#9 † 72 h 71 h after EOI (immediately before 7th olaparib administration) +24 / -2 h […]

[2] = system: ovarian cancer cell lines; assay: MTT cytotoxicity assay, panel of ovarian cancer cell lines; type: cell-based
Experimental: (§1) The following Ovarian Cancer Cell lines were analyzed: TOV112, SKOV-3, OVCAR-3, PEO1, PEO6, PEO4, A2780 and A2780-Cis (an A2780 variant made resistant to platinum), representing the main different molecular subtypes of ovarian cancer (Supplementary Table 6). These cell lines were maintained at 37 °C in 5% CO2 in RPMI‐1640 medium (Sigma‐Aldrich Co.) and DMEM medium (Sigma‐Aldrich Co.), all supplemented with 10% heat‐inactivated FBS (Sigma‐Aldrich Co.). To verify the genetic profile of the cell lines, a characterization of microsatellite markers was carried out (AmpFlSTR Identifiler PCR Amplification Kit, AppliedBiosystem).
(§2) For the pharmacological characterization of the different cell lines, dose–response curves were obtained for lurbinectedin (range between 25 and 0.0343 μM and 100–1.5625 μM dilution factor 3 and 2, respectively) and olaparib (range between […]). […] Cytotoxicity assay was assessed performing six technical replicates and three biological replicates per each curve point.
Before starting cytotoxicity assays to characterize the chemosensitivity of cell lines to study drugs, different time of exposures and doses were tested in order to establish the most suitable working conditions. […] Regarding olaparib, exposure times were established at 72, 96 and 120 h, measuring absorbance directly after treatment exposure (Supplementary Fig. 10). […]

A2780 = assay: MTT cytotoxicity assay, A2780; type: cell-based; conditions: A2780, lowest IC50 of the panel
Experimental: as §1, §2
(§3) For MTT assay, cells were plated and after 24 h of incubation, treated with the drug (lurbinectedin/olaparib) either as a single agent or with both agents simultaneously. […] Finally, the absorbance was measured at 570 nm.

[3] = single-agent, cited from earlier work
[4] = cited from earlier work
A2780 CIS = assay: MTT cytotoxicity assay, A2780 CIS; type: cell-based; conditions: A2780cis, lowest IC50 of the panel
Experimental: as §1, §2, §3

With `COc1ccc2[nH]c3c(c2c1)CCN[C@]31CS[C@@H]2c3c(OC(C)=O)c(C)c4c(c3[C@H](COC1=O)N1[C@@H]2[C@H]2c3c(cc(C)c(OC)c3O)C[C@@H]([C@@H]1O)N2C)OCO4` [lurbinectedin] the “Drug–drug interactions (DDI)” value [1] was “did not observe any potential drug–drug interactions; also recorded: no drug interactions”, the “Mean lurbinectedin CL” value ([1]; highest olaparib DL (250 mg BID)) was 12 L/h and the “Lurbinectedin CL variability” value ([1]; lurbinectedin 1 mg/m^2) was 92%. The “Lurbinectedin CL, one patient with high CL” value ([1]; lurbinectedin 1 mg/m^2) was 37 L/h, the “Lurbinectedin CL variability” value ([1]; lurbinectedin 1.5 mg/m^2) was 36% and the “Lurbinectedin CL variability” value ([1]; lurbinectedin 2 mg/m^2) was 52%. The “Lurbinectedin CL variabilities” value ([1]; olaparib 200 and 250 mg BID, lurbinectedin 1.5 and 2 mg/m^2) was about 36%, the “Mean lurbinectedin clearance (CL)” value ([1]; three lurbinectedin DLs, with olaparib) was about 12 L/h and the “IC50 reached after 1 h exposure” value ([2]; 1 h exposure, viability at 72 h) was “not enough to reach the IC50 value”. For the same compound, the IC50 ([2]; all cell lines except OVCAR3, 72 h exposure) was under 1 nM, the IC50 (A2780) was 0.46 nM and the “Grade 3–4 neutropenia” value ([3]; dose adjusted to body surface area ref 23) was 57%. For the same compound, the “Grade 3–4 neutropenia” value ([3]; flat dose ref 21) was “up to 85%” and the “Mean lurbinectedin CL as single-agent” value ([4]; single-agent ref 25) was 12 L/h.
For `O=C(c1cc(Cc2n[nH]c(=O)c3ccccc23)ccc1F)N1CCN(C(=O)C2CC2)CC1` [olaparib], the “Olaparib PK parameters by lurbinectedin DL” value ([1]; NCA) was “did not show differences”, the “Drug–drug interactions (DDI)” value [1] was “no drug interactions” and the clearance ([1]; human, blood, oral, olaparib 100 mg, read-out: Olaparib CL (converted)) was 50 mL/min. It also gave a clearance ([1]; human, blood, oral, olaparib DLs above 100 mg, read-out: Olaparib CL (converted)) of 100 to 167 mL/min, a half-life ([1]; human, in vivo, oral, this trial, NCA samples until 6 h, read-out: Olaparib terminal half-life (converted)) of 3 h and a clearance ([1]; human, in vivo, oral, this trial, read-out: Mean olaparib total body clearance (converted)) of 117 mL/min. The IC50 (A2780 CIS) was 2900 nM and the “Olaparib total body clearance” value ([4]; literature ref 31) was 5.1 L/h and 8.6 L/h.
